#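 Dose response: 5 concentrations. Exposure: 48 h. Format: 96-well plates. Endpoint: linear interpolation; highest concentration if not reached. GI50: concentration for 50% inhibition of growth. TGI: concentration producing complete growth inhibition.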
# Legend:
# Test in all cases: DTP human tumour cell line panel, 48 h
# [1] = test system: SF-268 CNS
# [2] = test system: HL-60(TB) leukemia
# [3] = test system: KM12 colon
# [4] = test system: CAKI-1 renal
# [5] = test system: MDA-MB-231 breast
# [6] = test system: SK-MEL-2 melanoma
# [7] = test system: M14 melanoma
# [8] = test system: CCRF-CEM leukemia
# [9] = test system: SK-MEL-28 melanoma
# [10] = test system: HCT-15 colon
# [11] = test system: OVCAR-5 ovarian
# [12] = test system: K-562 leukemia
# [13] = test system: SK-OV-3 ovarian
# [14] = test system: MALME-3M melanoma
# [15] = test system: T-47D breast
# [16] = test system: SR leukemia
# [17] = test system: BT-549 breast
# [18] = test system: HOP-92 NSCLC
# [19] = test system: ACHN renal
# [20] = test system: OVCAR-8 ovarian
# [21] = test system: SK-MEL-5 melanoma
# [22] = test system: NCI-H226 lung
# [23] = test system: RXF 393 renal
# [24] = test system: HOP-62 NSCLC
# [25] = test system: HCT-116 colon
# [26] = test system: SF-539 CNS
# [27] = test system: SNB-19 CNS
# [28] = test system: SF-295 CNS
# [29] = test system: UACC-62 melanoma
# [30] = test system: OVCAR-3 ovarian
# [31] = test system: NCI-H522 lung
# [32] = test system: MOLT-4 leukemia
# [33] = test system: LOX IMVI melanoma
# [34] = test system: HCC-2998 colon
# [35] = test system: UO-31 renal
# [36] = test system: TK-10 renal
# [37] = test system: PC-3 prostate
# [38] = test system: MDA-MB-435
# [39] = test system: UACC-257 melanoma
# [40] = test system: HT29 colon
# [41] = test system: A549 NSCLC
# [42] = test system: SNB-75 CNS
# [43] = test system: NCI-H460 lung
# [44] = test system: DU-145 prostate
# [45] = test system: OVCAR-4 ovarian
# [46] = test system: IGROV1 ovarian
# [47] = test system: COLO 205 colon
# [48] = test system: SN12C renal
# [49] = test system: RPMI-8226 leukemia
# [50] = test system: 786-0 renal
# [51] = test system: EKVX NSCLC
# [52] = test system: SW-620 colon
# [53] = test system: U251 CNS
# [54] = test system: MCF7 breast
# [55] = test system: A498 renal
# [56] = test system: HS 578T breast
# [57] = test system: NCI/ADR-RES ovarian
compound,measurement,setting,value
CN1CCN(Cc2ccc(NC(=O)c3cncc(C#Cc4cnc5ccc(NCCCO)nn45)c3)cc2C(F)(F)F)CC1,GI50,[1],126 nM
same,TGI,[1],850 nM
same,GI50,[2],73.3 nM
same,TGI,[2],462 nM
same,GI50,[3],11.2 nM
same,TGI,[3],876 nM
same,GI50,[4],177 nM
same,TGI,[4],1220 nM
same,GI50,[5],41.5 nM
same,TGI,[5],303 nM
same,GI50,[6],79 nM
same,TGI,[6],178 nM
same,GI50,[7],96.3 nM
same,TGI,[7],280 nM
same,GI50,[8],24.8 nM
same,TGI,[8],1810 nM
same,GI50,[9],245 nM
same,TGI,[9],1000 nM
same,GI50,[10],851 nM
same,TGI,[10],2990 nM
same,GI50,[11],183 nM
same,TGI,[11],1990 nM
same,GI50,[12],5 nM
same,TGI,[12],1840 nM
same,GI50,[13],308 nM
same,TGI,[13],1590 nM
same,GI50,[14],97.5 nM
same,TGI,[14],438 nM
same,GI50,[15],414 nM
same,TGI,[15],3260 nM
same,GI50,[16],32.2 nM
same,TGI,[16],859 nM
same,GI50,[17],343 nM
same,TGI,[17],864 nM
same,GI50,[18],21.1 nM
same,TGI,[18],124 nM
same,GI50,[19],483 nM
same,TGI,[19],1490 nM
same,GI50,[20],204 nM
same,TGI,[20],1030 nM
same,GI50,[21],617 nM
same,TGI,[21],1270 nM
same,GI50,[22],62 nM
same,TGI,[22],311 nM
same,GI50,[23],169 nM
same,TGI,[23],548 nM
same,GI50,[24],150 nM
same,TGI,[24],999 nM
same,GI50,[25],40.5 nM
same,TGI,[25],221 nM
same,GI50,[26],23.9 nM
same,TGI,[26],125 nM
same,GI50,[27],304 nM
same,TGI,[27],2920 nM
same,GI50,[28],457 nM
same,TGI,[28],1720 nM
same,GI50,[29],210 nM
same,TGI,[29],974 nM
same,GI50,[30],137 nM
same,TGI,[30],795 nM
same,GI50,[31],68.5 nM
same,TGI,[31],247 nM
same,GI50,[32],43.5 nM
same,TGI,[32],1620 nM
same,GI50,[33],59.9 nM
same,TGI,[33],270 nM
same,GI50,[34],222 nM
same,TGI,[34],1410 nM
same,GI50,[35],1320 nM
same,TGI,[35],3690 nM
same,GI50,[36],384 nM
same,TGI,[36],2150 nM
same,GI50,[37],243 nM
same,TGI,[37],2820 nM
same,GI50,[38],71.1 nM
same,TGI,[38],608 nM
same,GI50,[39],318 nM
same,TGI,[39],1500 nM
same,GI50,[40],108 nM
same,TGI,[40],439 nM
same,GI50,[41],202 nM
same,TGI,[41],1110 nM
same,GI50,[42],26.3 nM
same,TGI,[42],137 nM
same,GI50,[43],171 nM
same,TGI,[43],610 nM
same,GI50,[44],170 nM
same,TGI,[44],1060 nM
same,GI50,[45],166 nM
same,TGI,[45],1330 nM
same,GI50,[46],104 nM
same,TGI,[46],399 nM
same,GI50,[47],77.5 nM
same,TGI,[47],188 nM
same,GI50,[48],90.7 nM
same,TGI,[48],1200 nM
same,GI50,[49],206 nM
same,TGI,[49],898 nM
same,GI50,[50],299 nM
same,TGI,[50],969 nM
same,GI50,[51],148 nM
same,TGI,[51],924 nM
same,GI50,[52],71.4 nM
same,TGI,[52],368 nM
same,GI50,[53],290 nM
same,TGI,[53],1020 nM
same,GI50,[54],43.7 nM
same,TGI,[54],404 nM
same,GI50,[55],314 nM
same,TGI,[55],1040 nM
same,GI50,[56],85.5 nM
same,TGI,[56],370 nM
same,GI50,[57],7220 nM
same,TGI,[57],18200 nM

# Source: PubChem BioAssay (NCI)
